Measurements published in patent US20100010098A1, “POLYMORPHS OF RASAGILINE HYDROCHLORIDE” (priority 2008, published 2010).
Where a name gives a salt, the structure may show the parent alone. Read-outs that look alike come from different tables or passages of the source.

What was measured:
[1] = after storage for 4 weeks at 55° C./90% relative humidity
[2] = solid state; suspension with a liquid; compared with Form I
Experimental: 9 mg of rasagiline HCl Form I was suspended in 0.15 ml 2-PrOH and stirred for 11 days at 70° C.
b) 50 mg of rasagiline HCl Form I was suspended in 0.23 ml 2-PrOH and stirred for 7 days at 5° C.
20 mg of Form II was added to a suspension of 1.49 g Form III in 6 ml 2-PrOH. After 4 days solid material was isolated by filtration, washed with diethyl ether and was dried overnight at 40° C. in vacuo.

Chemical Purity (HPLC) [1]	Color Change [1]	Water uptake [1]	Chemical Purity (HPLC) ([1]; hydrochloride)	Color Change ([1]; hydrochloride)	Water uptake ([1]; hydrochloride)	SMILES	relative stability of the polymorphic form [2]
97.1%	Yes, brown color	Yes	–	–	–	C#CCN[C@@H]1CCc2ccccc21 [rasagiline mesylate, reference compound]	–
–	–	–	100%	No	No	C#CCN[C@@H]1CCc2ccccc21 [Form II rasagiline hydrochloride, rasagiline hydrochloride]	more stable in the solid state than the crystalline Form I
